{"source": "patent US8895585B2", "about": "“Nicotinamide derivative or salt thereof” (FUJIFILM Corporation, priority 2010, dated 2014)", "note": "pIC50: −log10 of the molar value."}
{"target": "T1, glutathione S-transferase (GST)-fused full-length human Syk protein (Homo sapiens, UniProt P43405)", "T1 construct": "(GST)-fused full-length human Syk protein; GST (glutathione S-transferase); purchased Carna Biosciences", "assay": "Syk enzyme assay", "assay_type": "biochemical", "settings": "Syk enzyme assay, Test Example 1; read-out: IC50 of Syk-inhibitory activity", "summary_of_the_method": "(§1)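 IC50 values come from a time-resolved FRET readout (615 and 665 nm) of substrate phosphorylation, measured after an EDTA stop and 1 h antibody binding. The kinase reaction ran 40 min at room temperature with 27 μM ATP and 0.4 μM biotin-peptide, following a 15 min compound preincubation with baculovirus-made GST-full-length human Syk.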"}
{"compound": "CCNc1nc(Nc2ccc3ncsc3c2)c(C(N)=O)cc1F", "note": "[Example 006-042, 2-((benzo[d]thiazol-6-yl)amino)-6-(ethylamino)-5-fluoronicotinamide]", "pIC50": "6.00 to 7.00"}
{"compound": "NCCNc1nc(Nc2cncc(-c3ccccc3)c2)c(C(N)=O)cc1F", "note": "[Example 006-089, 6-((2-aminoethyl)amino)-5-fluoro-2-((5-phenylpyridin-3-yl)amino)nicotinamide]", "pIC50": "7.30 to 8.00"}
{"compound": "Cn1cccc1-c1cncc(Nc2nc(NCCN)c(F)cc2C(N)=O)c1", "note": "[Example 006-090, 6-((2-aminoethyl)amino)-5-fluoro-2-((5-(1-methyl-1H-pyrrol-2-yl)pyridin-3-yl)amino)nicotinamide]", "pIC50": "6.00 to 7.00"}
{"compound": "Cc1ccc(Nc2nc(NC[C@H](C)N)c(F)cc2C(N)=O)cn1", "note": "[Example 006-095, (S)-6-((2-aminopropyl)amino)-5-fluoro-2-((6-methylpyridin-3-yl)amino)nicotinamide]", "pIC50": "6.00 to 7.00"}
{"compound": "COc1cc(Nc2nc(N[C@H]3CCCC[C@H]3N)c(F)cc2C(N)=O)cc(OC)n1", "note": "[Example 006-115, 6-((1S,2R)-2-aminocyclohexylamino)-2-((2,6-dimethoxypyridin-4-yl)amino)-5-fluoronicotinamide]", "pIC50": "6.00 to 7.00"}
{"compound": "Cc1cncc(Nc2nc(NC[C@@H](N)c3ccccc3)c(F)cc2C(N)=O)c1", "note": "[Example 006-118, (S)-6-((2-amino-2-phenylethyl)amino)-5-fluoro-2-((5-methylpyridin-3-yl)amino)nicotinamide]", "pIC50": "6.00 to 7.00"}
{"compound": "NC(=O)c1cc(F)c(NC[C@@H](N)c2ccccc2)nc1Nc1cccc(-n2nccn2)c1", "note": "[Example 006-120, (S)-2-((3-(2H-1,2,3-triazol-2-yl)phenyl)amino)-6-((2-amino-2-phenylethyl)amino)-5-fluoronicotinamide]", "pIC50": "7.30 to 8.00"}
{"compound": "NC[C@H](Nc1nc(Nc2ccc3cccnc3c2)c(C(N)=O)cc1F)c1ccccc1", "note": "[Example 006-134, (R)-6-((2-amino-1-phenylethyl)amino)-5-fluoro-2-(quinolin-7-ylamino)nicotinamide]", "pIC50": "7.30 to 8.00"}
{"compound": "COc1cc(Nc2nc(N[C@H](c3ccccc3)[C@@H](N)c3ccccc3)c(F)cc2C(N)=O)ccn1", "note": "[Example 006-139]", "pIC50": "7.30 to 8.00"}
{"compound": "CC[C@H](N)C(C)Nc1nc(Nc2ccc3ncccc3c2)c(C(N)=O)cc1F", "note": "(some centres unmarked) [Example 006-149]", "pIC50": "7.30 to 8.00"}
{"compound": "CCC(Nc1nc(Nc2ccc3ncccc3c2)c(C(N)=O)cc1F)[C@@H](N)CC", "note": "(stereo partly drawn) [Example 006-150, 6-(((4S)-4-aminohexan-3-yl)amino)-5-fluoro-2-(quinolin-6-ylamino)nicotinamide]", "pIC50": "7.30 to 8.00"}
{"compound": "CC[C@H](N)C(CC(C)C)Nc1nc(Nc2ccc3ncccc3c2)c(C(N)=O)cc1F", "note": "(stereo partly drawn) [Example 006-151, 6-(((5S)-5-amino-2-methylheptan-4-yl)amino)-5-fluoro-2-(quinolin-6-ylamino)nicotinamide]", "pIC50": "7.30 to 8.00"}
{"compound": "CC(C)C(Nc1nc(Nc2ccc3ncccc3c2)c(C(N)=O)cc1F)[C@H](C)N", "note": "(stereo partly drawn) [Example 006-158, 6-(((2S)-2-amino-4-methylpentan-3-yl)amino)-5-fluoro-2-(quinolin-6-ylamino)nicotinamide]", "pIC50": "7.30 to 8.00"}
{"compound": "CC(C)(C)[C@H](CN)Nc1nc(Nc2ccc3ncccc3c2)c(C(N)=O)cc1F", "note": "[Example 006-162, (R)-6-((1-amino-3,3-dimethylbutan-2-yl)amino)-5-fluoro-2-(quinolin-6-ylamino)nicotinamide]", "pIC50": "7.00 to 7.30"}
{"compound": "NCC1(Nc2nc(Nc3ccc4ncccc4c3)c(C(N)=O)cc2F)CC1", "note": "[Example 006-171, 6-((1-(aminomethyl)cyclopropyl)amino)-5-fluoro-2-((quinolin-6-yl)amino)nicotinamide]", "pIC50": "> 8.00"}
{"compound": "NC(=O)c1cc(F)c(NC2CCCC2N)nc1Nc1ccc2ncccc2c1", "note": "(stereo not drawn) [Example 006-175, 6-((cis-2-aminocyclopentyl)amino)-5-fluoro-2-(quinolin-6-yl)amino)nicotinamide]", "pIC50": "7.30 to 8.00"}
{"compound": "CC[C@H](Nc1nc(Nc2ccc3ncccc3c2)c(C(N)=O)cc1F)[C@H](C)N", "note": "[Example 006-179, 6-(((2S,3S)-2-aminopentan-3-yl)amino)-5-fluoro-2-((quinolin-6-yl)amino)nicotinamide]", "pIC50": "7.00 to 7.30"}
{"compound": "C[C@H](N)[C@H](C)Nc1nc(Nc2ccc3ncccc3c2)c(C(N)=O)cc1F", "note": "[Example 006-181, 6-(((2S,3S)-3-aminobutan-2-yl)amino)-5-fluoro-2-((quinolin-6-yl)amino)nicotinamide]", "pIC50": "6.00 to 7.00"}
{"compound": "CC(C)C[C@H](CN)Nc1nc(Nc2ccc(N3CCOCC3)nc2)c(C(N)=O)cc1F", "note": "[Example 006-191, (R)-6-((1-amino-4-methylpentan-2-yl)amino)-5-fluoro-2-((6-morpholinopyridin-3-yl)amino)nicotinamide]", "pIC50": "7.30 to 8.00"}
{"compound": "C[C@H](N)[C@H](C)Nc1nc(Nc2ccc3ncccc3c2)c(C(N)=O)cc1F", "note": "[Example 006-202, 6-(((2S,3S)-3-aminobutan-2-yl)amino)-5-fluoro-2-((quinolin-6-yl)amino)nicotinamide]", "pIC50": "7.00 to 7.30"}
{"compound": "CC(C)C[C@@H](CN)Nc1nc(Nc2ccc3ncccc3c2)c(C(N)=O)cc1F", "note": "[Example 006-203, (S)-6-((1-amino-4-methylpentan-2-yl)amino)-5-fluoro-2-((quinolin-6-yl)amino)nicotinamide]", "pIC50": "6.00 to 7.00"}
{"compound": "CCCC[C@@H](Nc1nc(Nc2cnc3cc(OC)ccc3c2)c(C(N)=O)cc1F)[C@H](C)N", "note": "[Example 006-205, 6-(((2S,3R)-2-aminoheptan-3-yl)amino)-5-fluoro-2-((7-methoxyquinolin-3-yl)amino)nicotinamide]", "pIC50": "> 8.00"}
{"compound": "C[C@H](Nc1nc(Nc2ccc3ncccc3c2)c(C(N)=O)cc1F)[C@@H](C)N", "note": "[Example 006-225, 6-(((2S,3R)-3-aminobutan-2-yl)amino)-5-fluoro-2-((quinolin-6-yl)amino)nicotinamide]", "pIC50": "7.30 to 8.00"}
{"compound": "CC(C)C[C@H](CN)Nc1nc(Nc2cccc3cccnc23)c(C(N)=O)cc1F", "note": "[Example 006-230, (R)-6-((1-amino-4-methylpentan-2-yl)amino)-5-fluoro-2-((quinolin-8-yl)amino)nicotinamide]", "pIC50": "7.30 to 8.00"}
{"compound": "CC(C)C[C@H](CN)Nc1nc(Nc2cncc3ccccc23)c(C(N)=O)cc1F", "note": "[Example 006-231]", "pIC50": "> 8.00"}
{"compound": "CC(C)C[C@H](CN)Nc1nc(Nc2cncc(-c3ccccc3)c2)c(C(N)=O)cc1F", "note": "[Example 006-235, (R)-6-((1-amino-4-methylpentan-2-yl)amino)-5-fluoro-2-((5-phenylpyridin-3-yl)amino)nicotinamide]", "pIC50": "7.30 to 8.00"}
{"compound": "CCC[C@@H](Nc1nc(Nc2cccc3cccnc23)c(C(N)=O)cc1F)[C@H](C)N", "note": "[Example 006-243, 6-(((2S,3R)-2-aminohexan-3-yl)amino)-5-fluoro-2-((quinolin-8-yl)amino)nicotinamide]", "pIC50": "7.30 to 8.00"}
{"compound": "CCC[C@@H](Nc1nc(Nc2ccc(N3CCOCC3)nc2)c(C(N)=O)cc1F)[C@H](C)N", "note": "[Example 006-246, 6-(((2S,3R)-2-aminohexan-3-yl)amino)-5-fluoro-2-((6-mopholinopyridin-3-yl)amino)nicotinamide]", "pIC50": "7.30 to 8.00"}
{"compound": "CC[C@@H](Nc1nc(Nc2ccnc(-n3nccn3)c2)c(C(N)=O)cc1F)[C@H](C)N", "note": "[Example 006-254, 2-((2-(2H-1,2,3-triazol-2-yl)pyridin-4-yl)amino)-6-(((2S,3R)-2-aminopentan-3-yl)amino)-5-fluoronicotinamide]", "pIC50": "7.30 to 8.00"}
{"compound": "CC[C@@H](Nc1nc(Nc2cnc(OC)c(-n3nccn3)c2)c(C(N)=O)cc1F)[C@H](C)N", "note": "[Example 006-273, 6-(((2S,3R)-2-aminopentan-3-yl)amino)-5-fluoro-2-((6-methoxy-5-(2H-1,2,3-triazol-2-yl)pyridin-3-yl)amino)nicotinamide]", "pIC50": "6.00 to 7.00"}
{"compound": "CC[C@@H](Nc1nc(Nc2cncc(-c3cc(OC)ccc3F)c2)c(C(N)=O)cc1F)[C@H](C)N", "note": "[Example 006-280, 6-(((2S,3R)-2-aminopentan-3-yl)amino)-5-fluoro-2-((5-(2-fluoro-5-methoxyphenyl)pyridin-3-yl)amino)nicotinamide]", "pIC50": "> 8.00"}
{"compound": "NC[C@@H](CC1CC1)Nc1nc(Nc2cncc(-c3ccccc3)c2)c(C(N)=O)cc1F", "note": "[Example 006-283, (R)-6-((1-amino-3-cyclopropylpropan-2-yl)amino)-5-fluoro-2-((5-phenylpyridin-3-yl)amino)nicotinamide]", "pIC50": "7.30 to 8.00"}
{"compound": "CCCC[C@H](CN)Nc1nc(Nc2ccc3c(cnn3C)c2)c(C(N)=O)cc1F", "note": "[Example 006-292, (R)-6-((1-aminohexan-2-yl)amino)-5-fluoro-2-((1-methyl-1H-indazol-5-yl)amino)nicotinamide]", "pIC50": "> 8.00"}
{"compound": "NCC(CCC(F)(F)F)Nc1nc(Nc2cncc(-c3ccccc3)c2)c(C(N)=O)cc1F", "note": "(centres unmarked) [Example 006-305, 6-((1-amino-5,5,5-trifluoropentan-2-yl)amino)-5-fluoro-2-((5-phenylpyridin-3-yl)amino)nicotinamide]", "pIC50": "7.30 to 8.00"}
{"compound": "COc1ccc(-c2cncc(Nc3nc(N[C@@H](CN)CC(C)C)c(F)cc3C(N)=O)c2)c(F)c1", "note": "[Example 006-319, (R)-6-((1-amino-4-methylpentan-2-yl)amino)-5-fluoro-2-((5-(2-fluoro-4-methoxyphenyl)pyridin-3-yl)amino)nicotinamide]", "pIC50": "7.30 to 8.00"}
{"compound": "COc1ccc(F)c(-c2cncc(Nc3nc(N[C@@H](CN)CC(C)C)c(F)cc3C(N)=O)c2)c1", "note": "[Example 006-320, (R)-6-((1-amino-4-methylpentan-2-yl)amino)-5-fluoro-2-((5-(2-fluoro-5-methoxyphenyl)pyridin-3-yl)amino)nicotinamide]", "pIC50": "7.00 to 7.30"}
{"compound": "COc1cccc(-c2cc(Nc3nc(N[C@@H](CN)CC(C)C)c(F)cc3C(N)=O)ccn2)c1", "note": "[Example 006-325, (R)-6-((1-amino-4-methylpentan-2-yl)amino)-5-fluoro-2-((2-(3-methoxyphenyl)pyridin-4-yl)amino)nicotinamide]", "pIC50": "> 8.00"}
{"target": "T1, glutathione S-transferase (GST)-fused full-length human Syk protein", "assay": "Syk enzyme assay", "assay_type": "biochemical", "settings": "read-out: Syk-inhibitory activity (IC50)", "summary_of_the_method": "as §1"}
{"compound": "Cn1ncc2ccc(Nc3nc(NCCN)c(F)cc3C(N)=O)cc21", "note": "[Example 6-27, 6-((2-aminoethyl)amino)-5-fluoro-2-((1-methyl-1H-indazol-6-yl)amino)nicotinamide]", "pIC50": "≥ 6.00"}
